This note sets out measurements from ChEMBL document CHEMBL1201862, “PubChem BioAssay data set” (2004).

Among the test systems are OVCAR-4; SR; NCI-H23; SK-MEL-28; HCT-116; COLO 205; DU-145; UACC-257; K562; 786-0; NCI-H460; OVCAR-3; MDA-N; HT-29; SK-MEL-5; SK-MEL-2; HOP-92; A498; RPMI-8226.
Assay in all cases: inhibition of tumour cell growth, NCI panel, 48 h

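Assay format: 96-well plates, 48-hour exposure. GI50 marks 50% less growth.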 Calls of active or inactive are those of the source. Cut-off read from the data, not from the text of the source: active = GI50 up to about 1.1 µM and inactive = higher. Peptide text beside a SMILES is read from it. * marks the point of attachment. Boc = CC(C)(C)OC(=O)*; OBn = c1ccc(CO*)cc1 A value given as a limit tells only on which side of the number the result lay.

As to `CCOC(=O)CCc1c(C(=O)OCC)[nH]c(/C=C2/NC(=O)C(C)=C2CC)c1C`, the GI50 is 2.9 µM (inactive) in the test on OVCAR-4; 4.51 µM (inactive) with SR; 2.24 µM (inactive) in the test with NCI-H23; 13.7 µM (inactive) in the test on SK-MEL-28; 13.1 µM (inactive) in the test on HCT-116; 14 µM (inactive) in the test with COLO 205. Besides, the GI50 in the test with DU-145 is 16.9 µM (inactive); in the test on UACC-257, 10.1 µM (inactive); in the test on K562 it was 0.0494 µM (active); in the test with 786-0 it was 15.8 µM (inactive); in the test on NCI-H460, 32.7 µM (inactive); with OVCAR-3, 3.88 µM (inactive). For the same compound, the GI50 was 5.83 µM (inactive) in the test on MDA-N; 10.4 µM (inactive) with HT-29; 2.97 µM (inactive) with SK-MEL-5; 18.3 µM (inactive) in the test on SK-MEL-2; 14.1 µM (inactive) in the test with HOP-92; 17.1 µM (inactive) in the test on A498.

On to `CN=C(n1ccnc1)n1ccnc1`, for which the GI50 in the test with OVCAR-4, in the test with SR, in the test with NCI-H23, in the test on SK-MEL-28, in the test with HCT-116 and in the test on COLO 205 was > 100 µM (inactive) in each case. The GI50 with DU-145, with UACC-257, with K562, in the test with 786-0, in the test with NCI-H460 and in the test on OVCAR-3 was > 100 µM (inactive) each time. Also, the GI50 with MDA-N, in the test on HT-29, in the test on RPMI-8226, in the test with SK-MEL-5, with SK-MEL-2 and in the test on A498 was > 100 µM (inactive) throughout.

On to `O=C(NCc1ccccc1Cl)c1c(O)c2ccccc2[nH]c1=O`, for which the GI50 in the test on OVCAR-4 was 8.53 µM (inactive); in the test on SR, > 100 µM (inactive); with NCI-H23 it was > 100 µM (inactive); with SK-MEL-28, > 100 µM (inactive); with HCT-116, 27.2 µM (inactive); in the test on COLO 205, 39.8 µM (inactive). The GI50 in the test on DU-145 was > 100 µM (inactive); in the test on UACC-257, > 100 µM (inactive); in the test on K562, > 100 µM (inactive); in the test on 786-0, 16.8 µM (inactive); in the test with NCI-H460, 18.7 µM (inactive); in the test with OVCAR-3, 32 µM (inactive). The GI50 with MDA-N is 79.1 µM (inactive); in the test with HT-29 it was 54.5 µM (inactive); in the test with RPMI-8226 it was 57.8 µM (inactive); in the test with SK-MEL-5, 46.8 µM (inactive); in the test with HOP-92, 27.9 µM (inactive); in the test on A498, 15.9 µM (inactive).

With `Nc1n[nH]c2c(C(=O)Nc3ccc(Cl)cc3)c(N)n(N)c(=O)c12`, the GI50 in the test on OVCAR-4, in the test with SR, with NCI-H23, with SK-MEL-28, with HCT-116 and in the test with COLO 205 was > 100 µM (inactive) throughout. For the same compound, the GI50 with DU-145, in the test on UACC-257, in the test with K562, with 786-0, in the test with NCI-H460 and with OVCAR-3 was > 100 µM (inactive) throughout. Besides, the GI50 in the test with MDA-N, in the test with HT-29, with RPMI-8226, with SK-MEL-5, in the test with SK-MEL-2 and with A498 was > 100 µM (inactive) each time.

`c1csc(-c2cc(-c3cccs3)c(-c3cccs3)s2)c1`: the GI50 with OVCAR-4 was > 100 µM (inactive); with SR it was 51.1 µM (inactive); in the test with NCI-H23, 96.4 µM (inactive); in the test on SK-MEL-28, 57.4 µM (inactive); in the test with HCT-116, 40.9 µM (inactive); with COLO 205, 40.6 µM (inactive). The GI50 with DU-145 is > 100 µM (inactive); in the test on UACC-257 it was 55.3 µM (inactive); with K562, 79.1 µM (inactive); in the test on 786-0 it was > 100 µM (inactive); in the test on NCI-H460, 47.2 µM (inactive); in the test on OVCAR-3, > 100 µM (inactive). For the same compound, the GI50 with MDA-N is 32 µM (inactive); in the test on HT-29, 39.3 µM (inactive); with SK-MEL-5, 33.2 µM (inactive); with HOP-92, 91.8 µM (inactive); in the test on A498, > 100 µM (inactive).

In the case of `CC(=O)OCC1OC(Nc2ccc3nc(C)n(-c4ccccc4)c(=O)c3c2)C(OC(C)=O)C(OC(C)=O)C1OC(C)=O` (stereo not given), the GI50 in the test on OVCAR-4 is > 50 µM (inactive); with SR it was 24.1 µM (inactive); with NCI-H23, > 50 µM (inactive); with SK-MEL-28, > 50 µM (inactive); in the test on HCT-116, > 50 µM (inactive); in the test with COLO 205 it was > 50 µM (inactive). In addition, the GI50 with DU-145 is > 50 µM (inactive); in the test on UACC-257, > 50 µM (inactive); in the test on K562 it was 32.1 µM (inactive); with 786-0, > 50 µM (inactive); in the test with NCI-H460, 15.5 µM (inactive); in the test with OVCAR-3, > 50 µM (inactive). In addition, the GI50 was > 50 µM (inactive) in the test with MDA-N; > 50 µM (inactive) with HT-29; 5.61 µM (inactive) in the test with RPMI-8226; > 50 µM (inactive) with SK-MEL-5; > 50 µM (inactive) in the test with SK-MEL-2; > 50 µM (inactive) in the test on A498.

Consider `Cc1ccc2c(c1)CC1(Cc3c(C)cccc3C1=O)C2=O` (stereo not given), for which the GI50 in the test with OVCAR-4, in the test with SR, in the test with NCI-H23, with SK-MEL-28, with HCT-116 and in the test on COLO 205 was > 100 µM (inactive) each time. In addition, the GI50 with DU-145, in the test with UACC-257, in the test on K562, with 786-0, in the test on NCI-H460 and in the test on OVCAR-3 was > 100 µM (inactive) in each case. Moreover, the GI50 with MDA-N is > 100 µM (inactive); in the test with HT-29, > 100 µM (inactive); in the test with RPMI-8226, > 100 µM (inactive); in the test with SK-MEL-5, > 100 µM (inactive); with HOP-92 it was 40.2 µM (inactive); in the test on A498 it was > 100 µM (inactive).

Turning to `CC(=O)C(=[N+]=[N-])C(=O)OCCOC(=O)C(=[N+]=[N-])C(C)=O`, the GI50 in the test with SR, in the test with NCI-H23, in the test with SK-MEL-28, with HCT-116, in the test with DU-145 and in the test on UACC-257 was > 1 µM (active) in each case. Besides, the GI50 in the test with K562, in the test on 786-0, in the test with NCI-H460, with OVCAR-3, with MDA-N and with HT-29 was > 1 µM (active) each time. The GI50 in the test on RPMI-8226, in the test with SK-MEL-5, with SK-MEL-2, in the test with HOP-92 and in the test with A498 was > 1 µM (active) each time.

`Cc1n[nH]c(=O)n1/N=C\CC/C=N\n1c(C)n[nH]c1=O`: the GI50 with OVCAR-4, in the test with SR, in the test with NCI-H23, in the test with SK-MEL-28, in the test on HCT-116 and in the test with COLO 205 was > 100 µM (inactive) throughout. Also, the GI50 in the test with DU-145, in the test on UACC-257, in the test on K562, in the test on 786-0, in the test on OVCAR-3 and in the test with MDA-N was > 100 µM (inactive) in each case. In addition, the GI50 in the test with HT-29, in the test on RPMI-8226, in the test on SK-MEL-5, in the test with SK-MEL-2, with HOP-92 and with A498 was > 100 µM (inactive) each time.

With `C[C@]1(CO)[C@H]2CC[C@@]34C=C[C@@](CO)(CC[C@H]3[C@]2(C)CC[C@H]1O)C4`, the GI50 with OVCAR-4 was 13.3 µM (inactive); with SR it was 24.3 µM (inactive); in the test on NCI-H23, 40.4 µM (inactive); in the test on SK-MEL-28, > 100 µM (inactive); with HCT-116 it was 56.9 µM (inactive); with COLO 205, 26.4 µM (inactive). For the same compound, the GI50 with DU-145 was 42.2 µM (inactive); with UACC-257, 87.5 µM (inactive); with 786-0, 43.9 µM (inactive); in the test on OVCAR-3, > 100 µM (inactive); in the test with MDA-N it was 34.2 µM (inactive); in the test with HT-29, > 100 µM (inactive). The GI50 is 27 µM (inactive) with RPMI-8226; 12.9 µM (inactive) in the test with SK-MEL-5; > 100 µM (inactive) in the test with SK-MEL-2; > 100 µM (inactive) with HOP-92; > 100 µM (inactive) in the test on A498.

`CC(NC(=O)C(NC(=O)OC(C)(C)C)C(C)C)C(=O)N1CCCC1C(=O)NCC(=O)NC(C(=O)NCC(=O)OCc1ccccc1)C(C)C` (stereo not given) (Boc-VAPGVG-OBn; configuration not given here): the GI50 in the test with OVCAR-4, with SR, with NCI-H23, with SK-MEL-28, in the test with HCT-116 and in the test on COLO 205 was > 100 µM (inactive) throughout. The GI50 in the test on DU-145, in the test on UACC-257, with K562, in the test with 786-0, in the test on NCI-H460 and in the test on OVCAR-3 was > 100 µM (inactive) throughout. In addition, the GI50 with MDA-N, in the test with HT-29, in the test on RPMI-8226, with SK-MEL-2, with HOP-92 and with A498 was > 100 µM (inactive) in each case.
